Laboratory results as given in PMC7473772 (eLife, 2020).
pEC50: −log10 of the molar value. “And” between values parts separate entries of the source, which are not always exact repeats. Equal entries are not always repeated. Where two headings read alike, the source gives them in different places.

What was measured:
[1] = system: tbaqp2/tbaqp3 null cells expressing TbAQP2^I190T; format: cell-based, Trypanosoma brucei brucei
TbAQP2^I110W = TbAQP2^I110W (Trypanosoma brucei brucei, UniProt Q6ZXT3, I110W); assay: [3H]-pentamidine transport; format: cell-based; details: 30 nM [3H]-pentamidine
Chain of TbAQP2^I110W (Q6ZXT3 whole entry I110W): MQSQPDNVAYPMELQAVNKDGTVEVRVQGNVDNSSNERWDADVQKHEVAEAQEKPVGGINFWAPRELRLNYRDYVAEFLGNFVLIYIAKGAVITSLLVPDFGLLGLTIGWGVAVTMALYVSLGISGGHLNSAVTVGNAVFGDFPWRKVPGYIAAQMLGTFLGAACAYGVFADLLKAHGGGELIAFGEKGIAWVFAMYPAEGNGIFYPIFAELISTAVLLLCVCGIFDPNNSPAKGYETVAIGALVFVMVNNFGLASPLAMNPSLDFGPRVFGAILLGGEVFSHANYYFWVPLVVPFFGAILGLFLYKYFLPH

[2] = target: T1, aqp1/aqp2/aqp3 null cells expressing TbAQP2-WT (Trypanosoma brucei brucei, UniProt Q6ZXT3); assay: Inhibition of [3H]-glycerol uptake; format: cell-based; details: for glycerol uptake: zero inhibitor point 0.002246
T1 sequence (Q6ZXT3 1-312): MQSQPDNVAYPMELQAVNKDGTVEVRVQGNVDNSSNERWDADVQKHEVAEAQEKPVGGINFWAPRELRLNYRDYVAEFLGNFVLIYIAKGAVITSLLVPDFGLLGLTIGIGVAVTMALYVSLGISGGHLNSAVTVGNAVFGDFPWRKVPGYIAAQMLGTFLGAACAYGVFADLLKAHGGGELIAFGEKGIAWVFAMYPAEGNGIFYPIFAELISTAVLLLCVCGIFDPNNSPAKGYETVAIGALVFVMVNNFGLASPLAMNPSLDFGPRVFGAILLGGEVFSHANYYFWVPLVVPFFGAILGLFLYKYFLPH

[3] = system: tbaqp2/tbaqp3 null cells expressing TbAQP3^W102I/R256L/Y250L; format: cell-based, Trypanosoma brucei brucei
[4] = system: tbaqp2/tbaqp3 null cells expressing TbAQP3^W102I/R256L; format: cell-based, Trypanosoma brucei brucei
tbaqp2/tbaqp3 null cells [5] = assay: microbe, parasite or virus in culture; format: cell-based, Trypanosoma brucei brucei
TbAQP2 L118W = TbAQP2 L118W (Trypanosoma brucei brucei, UniProt Q6ZXT3, L118W); assay: [3H]-pentamidine transport; format: cell-based; details: AQP2 mutant L118W; n=6
Chain of TbAQP2 L118W (Q6ZXT3 whole entry L118W): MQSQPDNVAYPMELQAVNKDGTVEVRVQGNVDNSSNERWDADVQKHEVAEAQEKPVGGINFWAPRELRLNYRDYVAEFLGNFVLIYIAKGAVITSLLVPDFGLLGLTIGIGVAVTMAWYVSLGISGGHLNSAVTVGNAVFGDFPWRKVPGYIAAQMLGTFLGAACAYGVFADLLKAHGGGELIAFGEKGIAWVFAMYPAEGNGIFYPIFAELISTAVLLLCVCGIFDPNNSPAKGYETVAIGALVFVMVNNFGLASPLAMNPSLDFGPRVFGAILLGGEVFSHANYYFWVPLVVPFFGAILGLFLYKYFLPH

tbaqp2/tbaqp3 null cells [6] = assay: [3H]-pentamidine transport; format: cell-based, Trypanosoma brucei brucei
TbAQP2^L258Y = TbAQP2^L258Y (Trypanosoma brucei brucei, UniProt Q6ZXT3, L258Y); assay: [3H]-pentamidine transport; format: cell-based; details: 30 nM [3H]-pentamidine
Chain of TbAQP2^L258Y (Q6ZXT3 whole entry L258Y): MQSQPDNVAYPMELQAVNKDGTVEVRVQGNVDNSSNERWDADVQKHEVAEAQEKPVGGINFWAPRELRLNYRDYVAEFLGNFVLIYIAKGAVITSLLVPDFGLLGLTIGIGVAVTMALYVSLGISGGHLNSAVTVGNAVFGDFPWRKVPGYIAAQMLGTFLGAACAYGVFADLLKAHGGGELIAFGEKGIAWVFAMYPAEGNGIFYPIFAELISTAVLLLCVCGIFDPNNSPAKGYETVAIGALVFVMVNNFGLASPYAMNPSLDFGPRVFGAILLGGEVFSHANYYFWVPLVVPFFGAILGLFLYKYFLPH

TbAQP3^W102I/R256L/Y250L = TbAQP3^W102I/R256L/Y250L (Trypanosoma brucei brucei, UniProt Q6ZXT2, R256L/W102I/Y250L); assay: [3H]-pentamidine transport; format: cell-based; details: AQP3 W102I/R256L/Y250L; over 30 minutes
Chain of TbAQP3^W102I/R256L/Y250L (Q6ZXT2 whole entry W102I/Y250L/R256L): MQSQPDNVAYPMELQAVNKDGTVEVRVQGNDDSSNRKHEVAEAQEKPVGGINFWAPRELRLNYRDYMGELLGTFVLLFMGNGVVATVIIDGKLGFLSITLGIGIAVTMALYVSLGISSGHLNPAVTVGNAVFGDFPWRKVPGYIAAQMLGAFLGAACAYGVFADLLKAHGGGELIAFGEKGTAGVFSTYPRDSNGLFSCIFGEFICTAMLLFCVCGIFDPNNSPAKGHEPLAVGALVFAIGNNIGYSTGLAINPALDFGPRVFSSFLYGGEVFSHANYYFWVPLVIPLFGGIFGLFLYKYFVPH

TbAQP2 L84W = TbAQP2 L84W (Trypanosoma brucei brucei, UniProt Q6ZXT3, L84W); assay: [3H]-pentamidine transport; format: cell-based; details: AQP2 mutant L84W; n=5
Chain of TbAQP2 L84W (Q6ZXT3 whole entry L84W): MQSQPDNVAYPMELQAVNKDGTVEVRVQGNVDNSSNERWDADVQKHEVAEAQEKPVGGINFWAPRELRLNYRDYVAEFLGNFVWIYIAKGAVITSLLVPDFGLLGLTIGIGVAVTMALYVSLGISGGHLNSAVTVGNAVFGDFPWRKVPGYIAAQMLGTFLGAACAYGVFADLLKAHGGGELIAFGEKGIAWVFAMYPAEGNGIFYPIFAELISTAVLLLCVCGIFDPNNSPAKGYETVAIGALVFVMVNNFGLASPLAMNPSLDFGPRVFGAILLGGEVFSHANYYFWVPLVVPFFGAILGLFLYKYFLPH

TbAQP2 L218M = TbAQP2 L218M (Trypanosoma brucei brucei, UniProt Q6ZXT3, L218M); assay: [3H]-pentamidine transport; format: cell-based; details: AQP2 mutant L218M; n=3
Chain of TbAQP2 L218M (Q6ZXT3 whole entry L218M): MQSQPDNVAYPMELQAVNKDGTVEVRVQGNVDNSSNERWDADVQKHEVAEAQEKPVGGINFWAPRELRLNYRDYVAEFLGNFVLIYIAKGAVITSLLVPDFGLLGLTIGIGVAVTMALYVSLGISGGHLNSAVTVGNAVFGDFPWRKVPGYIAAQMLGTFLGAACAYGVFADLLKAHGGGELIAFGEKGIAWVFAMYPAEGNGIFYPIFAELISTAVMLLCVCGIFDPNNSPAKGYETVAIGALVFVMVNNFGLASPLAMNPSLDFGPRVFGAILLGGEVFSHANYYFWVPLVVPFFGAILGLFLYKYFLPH

[7] = system: tbaqp2/tbaqp3 null cells expressing TbAQP2 L218M; assay: microbe, parasite or virus in culture; format: cell-based, Trypanosoma brucei brucei; details: Trypanosoma brucei
T. b. brucei 2T1 = assay: Drug sensitivity assay (resazurin); format: cell-based; details: Trypanosoma brucei, 48 h drug + 24 h resazurin, read-out: EC50 control 2T1 AVG
Description: The tbaqp2/tbaqp3 null cells ([Baker et al., 2012]) and tbaqp1-2-3 null cells ([Jeacock et al., 2017]) (both obtained from David Horn, University of Dundee, UK) are derived from the 2T1 strain of T. b. brucei ([Alsford and Horn, 2008]). The CRK12 RNAi cell line^28 was obtained from Dr Tansy Hammarton (University of Glasgow, UK) and is also based on the 2T1 cell line; RNAi expression was induced with 1 µg/ml tetracycline in the medium. All experiments were performed with bloodstream form trypanosomes grown in vitro in HMI-11 medium as described ([Wallace et al., 2002]) at 37°C in a 5% CO2 atmosphere. Cultures were routinely maintained in 10 ml of this medium, being seeded at 5 × 10^4 cells/ml and passed to fresh medium at reaching approximately 3 × 10^6 cells/ml after 48 hr. For transport experiments 150 or 200 ml of culture was seeded at the same density in large flasks and incubated until the culture reached late-log phase.
Drug sensitivity assays for T. b. brucei bloodstream forms used the cell viability dye resazurin (Sigma) and were performed exactly as described ([Wallace et al., 2002]; [Bridges et al., 2007]) in 96-well plates with doubling dilutions of test compound, starting at 100 µM, over 2 rows of the plate (23 dilutions plus no-drug control). Incubation time with test compound was 48 hr (37°C/5% CO2), followed by an additional 24 hr in the presence of the dye.

TbAQP2 L84M = TbAQP2 L84M (Trypanosoma brucei brucei, UniProt Q6ZXT3, L84M); assay: [3H]-pentamidine transport; format: cell-based; details: AQP2 mutant L84M; n=3
Chain of TbAQP2 L84M (Q6ZXT3 whole entry L84M): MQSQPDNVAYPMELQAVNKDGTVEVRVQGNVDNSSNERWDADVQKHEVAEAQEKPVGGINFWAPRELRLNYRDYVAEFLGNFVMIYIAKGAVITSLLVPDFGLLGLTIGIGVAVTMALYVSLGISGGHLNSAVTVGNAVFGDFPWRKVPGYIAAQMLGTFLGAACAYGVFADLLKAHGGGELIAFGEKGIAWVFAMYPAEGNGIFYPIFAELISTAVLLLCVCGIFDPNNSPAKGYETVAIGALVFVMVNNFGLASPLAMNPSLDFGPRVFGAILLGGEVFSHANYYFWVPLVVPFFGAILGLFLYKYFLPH

[8] = system: tbaqp2/tbaqp3 null cells expressing TbAQP2^S131P/S263A; format: cell-based, Trypanosoma brucei brucei
[9] = system: tbaqp2/tbaqp3 null cells expressing TbAQP2^L264R; format: cell-based, Trypanosoma brucei brucei
[10] = system: tbaqp2/tbaqp3 null cells expressing TbAQP2 L218W; assay: microbe, parasite or virus in culture; format: cell-based, Trypanosoma brucei brucei
TbAQP2 L218W = TbAQP2 L218W (Trypanosoma brucei brucei, UniProt Q6ZXT3, L218W); assay: [3H]-pentamidine transport; format: cell-based; details: AQP2 mutant L218W; n=4
Chain of TbAQP2 L218W (Q6ZXT3 whole entry L218W): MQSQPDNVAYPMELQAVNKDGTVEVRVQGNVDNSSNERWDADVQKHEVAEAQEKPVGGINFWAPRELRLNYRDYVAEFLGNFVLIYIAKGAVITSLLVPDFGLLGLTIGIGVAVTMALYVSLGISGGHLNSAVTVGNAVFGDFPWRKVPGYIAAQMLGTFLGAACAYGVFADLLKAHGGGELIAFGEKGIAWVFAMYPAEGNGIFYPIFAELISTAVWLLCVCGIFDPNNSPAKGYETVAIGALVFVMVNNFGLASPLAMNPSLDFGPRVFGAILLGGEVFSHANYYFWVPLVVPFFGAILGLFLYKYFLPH

[11] = Trypanosoma brucei, read-out: Alamar blue EC50, MEAN
[12] = Trypanosoma brucei, read-out: Alamar blue EC50, single repeats
[13] = read-out: Alamar blue EC50, MEAN
[14] = read-out: Alamar blue EC50, single repeats
[15] = AQP2/3-dKO, 30 nM [3H]-pentamidine, 1 mM adenosine
[16] = Fig. 3A, exp AQP016-AQP023, AQP2/3-dKO
[17] = Fig. 3A, exp AQP038-AQP041, AQP2/3-dKO
[18] = dKO control of the AQP3 mutant series, over 30 minutes

N=C(N)c1ccc(OCCCCCOc2ccc(C(=N)N)cc2)cc1 [Pentamidine]
EC50 as percent of AQP2/3 null EC50, MEAN [1]: 6.89%
Pentamidine transport rate (TbAQP2^I110W): 0.000216 pmol/10E7 cells/s
pEC50 [2]: 7.56
glycerol uptake ([2]; log[inhibitor] -3.60): 6.78e-20
glycerol uptake ([2]; log[inhibitor] -6.48): 0.000111
glycerol uptake ([2]; log[inhibitor] -7.00): 0.000765
glycerol uptake ([2]; log[inhibitor] -7.52): 0.00147
glycerol uptake ([2]; log[inhibitor] -8.00): 0.002105
glycerol uptake ([2]; log[inhibitor] -8.48): 0.002143
glycerol uptake ([2]; log[inhibitor] -9.00): 0.002263
glycerol uptake ([2]; log[inhibitor] -9.48): 0.002177
EC50 as percent of AQP2/3 null EC50, MEAN [3]: 31.94%
EC50 as percent of AQP2/3 null EC50, MEAN [4]: 83.83%
EC50, percent of AQP2/3 null EC50 (tbaqp2/tbaqp3 null cells [5]): 100.00%
EC50 as percent of AQP2/3 null EC50, MEAN (tbaqp2/tbaqp3 null cells [5]): 100.00%
EC50 as percent of AQP2/3 null EC50, single repeats (tbaqp2/tbaqp3 null cells [5]): 100%
pEC50 (tbaqp2/tbaqp3 null cells [5]; [11]): 7.18
pEC50 (tbaqp2/tbaqp3 null cells [5]; [12]): 7.16
pEC50 (tbaqp2/tbaqp3 null cells [5]; [13]): 7.14
pEC50 (tbaqp2/tbaqp3 null cells [5]; [14]): 7.28 and 7.11 and 7.16 and 7.15
Pentamidine transport rate AVG (TbAQP2 L118W): 0.0006283 pmol/10E7 cells/s
Pentamidine transport rate (tbaqp2/tbaqp3 null cells [6]; [15]): 0.00022 pmol/10E7 cells/s and 0.000123 pmol/10E7 cells/s
Pentamidine transport rate, percent of +AQP2-WT (tbaqp2/tbaqp3 null cells [6]; [15]): 0.383% and 1.05%
Pentamidine transport rate AVG (tbaqp2/tbaqp3 null cells [6]; AQP2/3-dKO, n=16): 2.76E-04 pmol/10E7 cells/s
Pentamidine transport rate, percent of +AQP2-WT, AVG (tbaqp2/tbaqp3 null cells [6]; AQP2/3-dKO, n=16): 1.08% of +AQP2-WT
Pentamidine transport rate, AVG (tbaqp2/tbaqp3 null cells [6]; Fig. 3A, exp AQP001-AQP023, AQP2/3-dKO): 2.76E-04 pmol/10E7 cells/s
Pentamidine transport rate as percent of +AQP2-WT, AVG (tbaqp2/tbaqp3 null cells [6]; [16]): 1.32%
Pentamidine transport rate as percent of +AQP2-WT, single experiments (tbaqp2/tbaqp3 null cells [6]; [16]): 1.4% and 1.5% and 1.0%
Pentamidine transport rate as percent of +AQP2-WT, AVG (tbaqp2/tbaqp3 null cells [6]; [17]): 0.383%
Pentamidine transport rate, AVG (tbaqp2/tbaqp3 null cells [6]; [17]): 0.000123 pmol/10E7 cells/s
Pentamidine transport rate, single experiments (tbaqp2/tbaqp3 null cells [6]; [17]): 0.0001045 pmol/10E7 cells/s and 0.0001529 pmol/10E7 cells/s and 0.0001563 pmol/10E7 cells/s and 8.02E-05 pmol/10E7 cells/s
Pentamidine transport rate (tbaqp2/tbaqp3 null cells [6]; [18]): 1.22E-04 pmol/10E7 cells/s
Pentamidine transport rate, percent of TbAQP2WT control (tbaqp2/tbaqp3 null cells [6]; [18]): 0.57%
Transport rate AVG (tbaqp2/tbaqp3 null cells [6]; strain AQKO, unit not given, +AQP2-WT = 100): 1.05
Pentamidine transport rate (TbAQP2^L258Y): 0.0004 pmol/10E7 cells/s
Pentamidine transport rate (TbAQP3^W102I/R256L/Y250L): 2.46E-04 pmol/10E7 cells/s
Pentamidine transport rate AVG (TbAQP2 L84W): 0.0006628 pmol/10E7 cells/s
Pentamidine transport rate AVG (TbAQP2 L218M): 0.004612 pmol/10E7 cells/s
pEC50 [7, 13]: 9.20
pEC50 ([7]; read-out: EC50 AVG): 9.20
pEC50 (T. b. brucei 2T1): 7.82
Pentamidine transport rate AVG (TbAQP2 L84M): 0.003585 pmol/10E7 cells/s
EC50, percent of AQP2/3 null EC50 [8]: 1.92%
EC50, percent of AQP2/3 null EC50 [9]: 126.58%
pEC50 [10, 11]: 8.36
pEC50 [10, 12]: 8.40
pEC50 ([10]; Trypanosoma brucei, read-out: EC50 AVG): 8.36
pEC50 [10, 14]: 8.41 and 8.28
Pentamidine transport rate AVG (TbAQP2 L218W): 0.002093 pmol/10E7 cells/s
